Data taken from ChEMBL document CHEMBL1201862, “PubChem BioAssay data set” (2004).
Calls of active or inactive are those of the source.

Assays:
[1] = Luminescence Cell-Based Dose Confirmation HTS to Identify Inhibitors of Platelet Dense Granule Release. [Related pubchem assays: 1663 (Primary HTS), 1678 (Summary of Project)]; format: functional
[2] = molecular target: Luciferin 4-monooxygenase (Photinus pyralis, UniProt P08659); assay: firefly luciferase enzyme inhibitors, dose response, biochemical, luminescence (AID 1891)
Luciferin 4-monooxygenase, sequence (P08659 whole entry): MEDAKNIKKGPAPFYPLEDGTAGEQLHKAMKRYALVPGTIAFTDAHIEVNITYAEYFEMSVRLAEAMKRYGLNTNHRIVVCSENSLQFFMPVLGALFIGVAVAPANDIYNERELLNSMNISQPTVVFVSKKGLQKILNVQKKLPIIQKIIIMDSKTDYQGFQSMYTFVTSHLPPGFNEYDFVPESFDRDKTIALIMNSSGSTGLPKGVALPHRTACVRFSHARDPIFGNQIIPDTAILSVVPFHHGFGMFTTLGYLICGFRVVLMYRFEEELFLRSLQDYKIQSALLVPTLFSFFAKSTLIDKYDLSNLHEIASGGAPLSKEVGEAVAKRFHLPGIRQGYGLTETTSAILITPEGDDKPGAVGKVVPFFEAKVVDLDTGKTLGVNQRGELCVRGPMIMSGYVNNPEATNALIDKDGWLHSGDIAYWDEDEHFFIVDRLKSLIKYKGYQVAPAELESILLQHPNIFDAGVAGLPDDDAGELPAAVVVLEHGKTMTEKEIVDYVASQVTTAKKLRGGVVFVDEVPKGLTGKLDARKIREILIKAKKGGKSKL

[3] = molecular target: T1, Histone-lysine N-methyltransferase NSD2 (Homo sapiens, UniProt O96028); format: biochemical
T1 sequence (O96028 whole entry): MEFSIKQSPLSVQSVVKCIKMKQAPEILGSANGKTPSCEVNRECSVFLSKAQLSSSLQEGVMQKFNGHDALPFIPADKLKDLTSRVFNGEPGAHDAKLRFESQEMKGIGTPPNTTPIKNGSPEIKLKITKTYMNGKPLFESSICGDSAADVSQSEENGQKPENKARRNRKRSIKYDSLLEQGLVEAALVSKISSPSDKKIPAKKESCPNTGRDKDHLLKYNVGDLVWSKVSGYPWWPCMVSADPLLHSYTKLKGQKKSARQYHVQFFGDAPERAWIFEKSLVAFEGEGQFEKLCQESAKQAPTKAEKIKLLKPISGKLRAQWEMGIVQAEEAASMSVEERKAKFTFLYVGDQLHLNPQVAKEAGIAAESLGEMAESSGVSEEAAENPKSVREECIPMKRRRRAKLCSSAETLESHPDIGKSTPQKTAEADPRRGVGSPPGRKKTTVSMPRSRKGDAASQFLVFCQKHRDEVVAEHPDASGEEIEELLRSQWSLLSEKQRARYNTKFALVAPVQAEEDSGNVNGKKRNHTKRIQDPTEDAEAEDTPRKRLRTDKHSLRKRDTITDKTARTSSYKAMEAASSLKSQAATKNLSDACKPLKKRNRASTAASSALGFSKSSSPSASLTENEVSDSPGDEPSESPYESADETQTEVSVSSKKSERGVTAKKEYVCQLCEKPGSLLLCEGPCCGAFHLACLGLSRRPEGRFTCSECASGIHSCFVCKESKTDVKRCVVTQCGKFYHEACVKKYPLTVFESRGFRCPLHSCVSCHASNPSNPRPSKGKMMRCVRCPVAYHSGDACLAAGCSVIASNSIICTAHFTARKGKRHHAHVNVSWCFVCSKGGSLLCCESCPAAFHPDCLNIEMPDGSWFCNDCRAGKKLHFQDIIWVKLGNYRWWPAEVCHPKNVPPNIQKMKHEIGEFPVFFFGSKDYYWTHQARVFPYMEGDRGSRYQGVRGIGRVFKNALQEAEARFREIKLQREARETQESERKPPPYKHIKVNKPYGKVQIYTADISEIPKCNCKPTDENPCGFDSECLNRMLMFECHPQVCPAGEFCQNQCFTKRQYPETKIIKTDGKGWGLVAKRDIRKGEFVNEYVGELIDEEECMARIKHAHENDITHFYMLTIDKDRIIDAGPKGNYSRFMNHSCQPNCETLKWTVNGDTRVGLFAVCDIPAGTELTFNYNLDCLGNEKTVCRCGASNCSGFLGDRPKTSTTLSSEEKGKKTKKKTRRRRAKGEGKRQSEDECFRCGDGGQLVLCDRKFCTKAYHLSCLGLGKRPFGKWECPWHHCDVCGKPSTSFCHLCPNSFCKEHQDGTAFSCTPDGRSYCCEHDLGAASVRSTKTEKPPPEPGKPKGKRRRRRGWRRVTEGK

Cytochrome P450 2C9 = Cytochrome P450 2C9 (Homo sapiens, UniProt P11712)
Cytochrome P450 2C9, sequence (P11712 whole entry): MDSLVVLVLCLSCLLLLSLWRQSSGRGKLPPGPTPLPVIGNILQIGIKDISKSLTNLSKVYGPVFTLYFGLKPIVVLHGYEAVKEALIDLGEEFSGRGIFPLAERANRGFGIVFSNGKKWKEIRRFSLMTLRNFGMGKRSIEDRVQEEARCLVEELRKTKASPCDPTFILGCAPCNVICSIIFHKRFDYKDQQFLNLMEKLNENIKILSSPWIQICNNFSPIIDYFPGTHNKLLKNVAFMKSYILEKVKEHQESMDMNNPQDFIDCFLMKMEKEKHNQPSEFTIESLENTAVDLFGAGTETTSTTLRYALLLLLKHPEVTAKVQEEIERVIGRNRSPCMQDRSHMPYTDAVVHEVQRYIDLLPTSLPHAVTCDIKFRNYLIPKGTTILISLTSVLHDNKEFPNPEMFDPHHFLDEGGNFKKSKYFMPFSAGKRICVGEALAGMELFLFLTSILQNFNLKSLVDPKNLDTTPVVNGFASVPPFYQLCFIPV

Cytochrome P450 2D6 = Cytochrome P450 2D6 (Homo sapiens, UniProt P10635);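 also: CYP2D6 member of a cytochrome P450 panel assay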
Cytochrome P450 2D6, sequence (P10635 whole entry): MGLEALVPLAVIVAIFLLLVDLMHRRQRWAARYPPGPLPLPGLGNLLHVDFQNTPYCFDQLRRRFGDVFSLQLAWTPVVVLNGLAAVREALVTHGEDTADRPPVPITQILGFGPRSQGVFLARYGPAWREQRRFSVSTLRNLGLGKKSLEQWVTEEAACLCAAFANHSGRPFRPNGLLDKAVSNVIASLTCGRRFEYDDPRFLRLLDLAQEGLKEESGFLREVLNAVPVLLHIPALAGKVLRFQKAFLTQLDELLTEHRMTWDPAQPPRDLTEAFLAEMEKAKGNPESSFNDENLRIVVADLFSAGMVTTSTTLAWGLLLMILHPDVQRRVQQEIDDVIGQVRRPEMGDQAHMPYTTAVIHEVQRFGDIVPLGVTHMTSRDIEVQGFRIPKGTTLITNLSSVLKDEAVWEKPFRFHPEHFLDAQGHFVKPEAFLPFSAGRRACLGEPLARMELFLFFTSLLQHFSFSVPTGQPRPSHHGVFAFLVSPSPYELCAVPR

Cytochrome P450 3A4 = Cytochrome P450 3A4 (Homo sapiens, UniProt P08684);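 also: CYP3A4 tested as one member of a cytochrome P450 panel screen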
Cytochrome P450 3A4, sequence (P08684 whole entry): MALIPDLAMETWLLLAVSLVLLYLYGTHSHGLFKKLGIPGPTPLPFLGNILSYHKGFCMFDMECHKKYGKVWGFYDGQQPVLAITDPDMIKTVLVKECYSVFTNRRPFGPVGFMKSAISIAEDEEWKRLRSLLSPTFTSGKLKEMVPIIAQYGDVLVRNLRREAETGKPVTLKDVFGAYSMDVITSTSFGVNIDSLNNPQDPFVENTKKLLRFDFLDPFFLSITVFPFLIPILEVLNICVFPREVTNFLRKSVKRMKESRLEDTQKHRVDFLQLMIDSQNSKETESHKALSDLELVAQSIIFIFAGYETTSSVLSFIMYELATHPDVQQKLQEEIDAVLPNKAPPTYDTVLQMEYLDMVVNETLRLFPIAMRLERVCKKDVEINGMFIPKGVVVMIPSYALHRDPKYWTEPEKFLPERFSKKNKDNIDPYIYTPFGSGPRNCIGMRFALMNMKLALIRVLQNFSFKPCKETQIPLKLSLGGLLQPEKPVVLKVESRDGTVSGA

Cytochrome P450 1A2 = molecular target: T2, Cytochrome P450 1A2 (Homo sapiens, UniProt P05177);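 also: PubChem cytochrome P450 panel assay, CYP1A2 panel member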
T2 sequence (P05177 whole entry): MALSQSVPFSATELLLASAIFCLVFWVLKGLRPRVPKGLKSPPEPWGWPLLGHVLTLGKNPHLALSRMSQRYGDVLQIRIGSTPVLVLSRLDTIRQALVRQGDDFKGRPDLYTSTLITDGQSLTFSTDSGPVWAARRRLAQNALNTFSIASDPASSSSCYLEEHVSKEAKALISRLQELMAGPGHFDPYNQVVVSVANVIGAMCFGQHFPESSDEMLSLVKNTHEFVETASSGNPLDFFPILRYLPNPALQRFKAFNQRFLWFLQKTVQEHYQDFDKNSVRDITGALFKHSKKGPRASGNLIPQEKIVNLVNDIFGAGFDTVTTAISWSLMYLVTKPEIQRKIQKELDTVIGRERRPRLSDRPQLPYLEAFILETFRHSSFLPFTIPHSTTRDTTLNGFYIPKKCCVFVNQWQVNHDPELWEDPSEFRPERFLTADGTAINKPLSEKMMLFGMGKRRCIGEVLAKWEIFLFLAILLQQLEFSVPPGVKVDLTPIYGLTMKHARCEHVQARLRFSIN

[4] = molecular target: T3, Corticotropin-releasing factor receptor 2/Corticotropin-releasing factor-binding protein (Homo sapiens, UniProt P24387+Q13324); assay: Dose Response confirmation of uHTS hits for small molecule antagonists of the CRF-binding protein and CRF-R2 receptor complex.; format: functional; details: read-out: IC50_Mean
T3 sequence (Q13324 whole entry): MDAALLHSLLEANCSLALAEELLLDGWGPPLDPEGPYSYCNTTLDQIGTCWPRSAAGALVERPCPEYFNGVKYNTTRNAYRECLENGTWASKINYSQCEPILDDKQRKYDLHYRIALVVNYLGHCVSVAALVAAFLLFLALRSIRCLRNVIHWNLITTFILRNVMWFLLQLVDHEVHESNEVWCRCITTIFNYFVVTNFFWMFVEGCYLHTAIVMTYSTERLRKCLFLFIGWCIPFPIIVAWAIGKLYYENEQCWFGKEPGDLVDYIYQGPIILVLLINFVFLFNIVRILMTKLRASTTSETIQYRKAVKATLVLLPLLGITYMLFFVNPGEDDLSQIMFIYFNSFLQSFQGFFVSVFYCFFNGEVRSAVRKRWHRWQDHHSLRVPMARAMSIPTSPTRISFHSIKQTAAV
T3 sequence (P24387 whole entry): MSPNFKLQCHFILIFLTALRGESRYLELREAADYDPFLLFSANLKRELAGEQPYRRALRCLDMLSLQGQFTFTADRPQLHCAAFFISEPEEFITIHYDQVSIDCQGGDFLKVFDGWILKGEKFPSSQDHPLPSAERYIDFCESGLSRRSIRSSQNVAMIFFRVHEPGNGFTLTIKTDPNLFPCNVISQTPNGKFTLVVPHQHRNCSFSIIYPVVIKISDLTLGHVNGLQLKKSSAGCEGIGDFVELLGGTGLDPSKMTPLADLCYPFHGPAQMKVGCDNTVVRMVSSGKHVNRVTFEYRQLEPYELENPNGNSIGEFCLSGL

[5] = molecular target: T3, Corticotropin-releasing factor receptor 2/Corticotropin-releasing factor-binding protein; assay: activators of CRF receptor 2 with binding protein – uHTS hits, confirmation (AID 602473); format: functional; details: read-out: EC50_Mean
[6] = molecular target: T4, Rac GTPase-activating protein 1 (Homo sapiens, UniProt Q9H0H5); assay: MgcRacGAP GTPase-activating activity inhibitors, confirmation, biochemical, ADP Hunter fluorescence, primary and confirmatory (AID 624330); format: functional
T4 sequence (Q9H0H5 whole entry): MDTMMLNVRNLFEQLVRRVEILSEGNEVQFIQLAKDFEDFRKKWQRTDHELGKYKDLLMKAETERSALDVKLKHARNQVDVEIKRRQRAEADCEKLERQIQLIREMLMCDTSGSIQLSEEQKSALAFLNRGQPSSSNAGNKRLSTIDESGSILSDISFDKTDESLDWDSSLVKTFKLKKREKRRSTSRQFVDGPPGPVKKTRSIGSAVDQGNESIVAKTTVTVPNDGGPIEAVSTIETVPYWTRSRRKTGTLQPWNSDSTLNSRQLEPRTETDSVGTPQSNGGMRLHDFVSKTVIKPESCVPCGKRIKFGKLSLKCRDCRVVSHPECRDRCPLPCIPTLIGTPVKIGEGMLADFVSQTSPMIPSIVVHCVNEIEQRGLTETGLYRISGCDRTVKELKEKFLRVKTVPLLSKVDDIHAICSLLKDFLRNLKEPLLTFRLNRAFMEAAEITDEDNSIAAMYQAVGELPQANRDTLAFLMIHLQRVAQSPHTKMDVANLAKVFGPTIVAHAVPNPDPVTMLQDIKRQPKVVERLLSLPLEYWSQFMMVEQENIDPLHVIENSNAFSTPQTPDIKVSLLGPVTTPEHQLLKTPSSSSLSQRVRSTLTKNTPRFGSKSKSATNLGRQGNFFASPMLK

[7] = molecular target: T5, Short transient receptor potential channel 4 (Mus musculus, UniProt Q9QUQ5); assay: mouse TRPC4 channel activators, dose response, cell-based, HEK293 TRPC4/mu-opioid, Fluo-4 calcium (AID 434937); format: functional
T5 sequence (Q9QUQ5 whole entry): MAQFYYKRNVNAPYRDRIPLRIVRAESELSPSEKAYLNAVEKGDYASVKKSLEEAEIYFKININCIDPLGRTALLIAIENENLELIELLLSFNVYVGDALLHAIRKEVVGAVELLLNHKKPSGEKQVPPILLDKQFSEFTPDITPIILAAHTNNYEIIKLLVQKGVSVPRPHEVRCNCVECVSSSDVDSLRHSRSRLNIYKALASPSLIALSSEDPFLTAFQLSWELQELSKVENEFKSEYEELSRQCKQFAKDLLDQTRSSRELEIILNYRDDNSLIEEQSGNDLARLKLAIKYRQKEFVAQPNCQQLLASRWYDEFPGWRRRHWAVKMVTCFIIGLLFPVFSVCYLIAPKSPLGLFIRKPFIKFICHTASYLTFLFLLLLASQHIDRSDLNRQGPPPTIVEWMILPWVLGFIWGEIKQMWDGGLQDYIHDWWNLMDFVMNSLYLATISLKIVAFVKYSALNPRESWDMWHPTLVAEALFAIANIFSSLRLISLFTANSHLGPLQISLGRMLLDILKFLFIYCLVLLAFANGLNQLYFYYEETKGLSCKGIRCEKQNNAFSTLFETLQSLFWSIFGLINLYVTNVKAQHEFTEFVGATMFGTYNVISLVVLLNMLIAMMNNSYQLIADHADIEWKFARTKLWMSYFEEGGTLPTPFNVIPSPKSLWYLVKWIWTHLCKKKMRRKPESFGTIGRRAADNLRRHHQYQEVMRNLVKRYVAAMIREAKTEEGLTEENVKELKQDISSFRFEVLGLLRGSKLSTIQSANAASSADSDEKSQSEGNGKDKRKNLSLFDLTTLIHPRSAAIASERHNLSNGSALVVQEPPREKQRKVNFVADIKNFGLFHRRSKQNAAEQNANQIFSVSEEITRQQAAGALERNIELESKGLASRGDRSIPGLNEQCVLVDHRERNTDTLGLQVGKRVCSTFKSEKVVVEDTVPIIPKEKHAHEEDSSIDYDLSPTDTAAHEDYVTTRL

Cytochrome P450 2C19 = Cytochrome P450 2C19 (Homo sapiens, UniProt P33261); assay: Cytochrome panel assay with activity outcomes. Panel member name: p450-cyp2c19 Compounds with AC50 equal or less than 10 uM are considered active; format: functional; details: read-out: AC50
Cytochrome P450 2C19, sequence (P33261 whole entry): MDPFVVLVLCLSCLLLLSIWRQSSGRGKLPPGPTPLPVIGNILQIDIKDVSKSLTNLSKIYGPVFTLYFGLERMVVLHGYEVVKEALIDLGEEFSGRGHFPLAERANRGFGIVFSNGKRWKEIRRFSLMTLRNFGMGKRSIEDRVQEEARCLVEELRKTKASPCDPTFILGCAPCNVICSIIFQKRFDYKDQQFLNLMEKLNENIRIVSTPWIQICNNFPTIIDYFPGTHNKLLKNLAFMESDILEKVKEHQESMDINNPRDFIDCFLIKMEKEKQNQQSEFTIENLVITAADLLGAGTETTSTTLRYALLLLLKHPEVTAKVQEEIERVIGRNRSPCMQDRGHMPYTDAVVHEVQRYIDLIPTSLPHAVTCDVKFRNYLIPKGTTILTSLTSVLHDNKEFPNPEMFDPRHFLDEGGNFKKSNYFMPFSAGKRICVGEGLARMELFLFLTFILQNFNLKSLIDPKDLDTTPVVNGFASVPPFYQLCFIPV

SMILES	AC50 (Cytochrome P450 2D6)	EC50 [1]	EC50 [2]	further results
COCc1cc(C)nc(SCC[N+](C)(C)CC(=O)c2ccc(Br)cc2)c1C#N		> 112 µM (not active)	> 112 µM (not active)	
CSC1=NSC2=NC(=O)/C(=C/c3coc4ccccc4c3=O)C(=N)N12				AC50 [3]: 16.5 µM (active)
CCN(CC)CCCN(Cc1cc2cc(OC)ccc2nc1O)C(=O)Nc1ccc(F)cc1				AC50 [3]: 12.4 µM (active)
COc1ccccc1NS(=O)(=O)c1ccc(NC(C)=O)cc1		> 112 µM (not active)	> 112 µM (not active)	
CCN(CC)CCC(=O)c1ccc(F)cc1				AC50 [3]: > 20 µM (inactive)
COc1ccc(/C=N/NC(=O)c2nonc2C)cc1		2.84 µM (active)	9.4 µM (active)	
Cc1ccc(NC(=O)Cc2nc(CCl)cs2)cc1		> 112 µM (not active)	> 112 µM (not active)	
COc1ccc2cc(C(=O)N3CCN(Cc4ccc5c(c4)OCO5)CC3)[nH]c2c1		> 112 µM (not active)	> 112 µM (not active)	IC50 [4]: > 47.1 µM (inactive); EC50 [5]: > 53 µM (inactive)
CC(C)N1C[C@@]23C=C[C@@H](O2)C(C(=O)OCc2ccccc2)[C@H]3C1=O (stereo partly drawn)		> 112 µM (not active)	> 112 µM (not active)	
Cc1ccc(NC(=O)CNCC(c2ccccc2)N(C)C)cc1F (stereo not drawn)				IC50 [6]: 70.8 µM (active); EC50 [7]: 0.596 µM (active)
O=C(Nc1ccccc1C(=O)N/N=C/c1ccncc1)c1ccccc1		3.06 µM (active)	< 0.088 µM (active)	

Now from value to compound, other results behind:

AC50 (Cytochrome P450 2D6)	SMILES	EC50 [1]	EC50 [2]	further results
22.4 µM (inconclusive)	C=CCN=C(NC#N)SCc1ccccc1			AC50 (Cytochrome P450 2C9): 15.8 µM (inconclusive)
1 µM (inconclusive)	CCOc1cc(/C=N/NC(=O)c2cccc([N+](=O)[O-])c2)ccc1OS(=O)(=O)c1ccccc1			AC50 (Cytochrome P450 2C9): 11.2 µM (inconclusive); AC50 (Cytochrome P450 3A4): 8.91 µM (inconclusive); AC50 (Cytochrome P450 1A2): 7.08 µM (inconclusive)
6.31 µM (inconclusive)	C[C@@H]1CC[C@@H]2C(=O)N3[C@@H](CC[C@@H](C)[C@@H]3c3ccc(-c4ccco4)cc3)C(=O)N2[C@H]1c1ccc(-c2ccco2)cc1			
5.01 µM (inconclusive)	N#Cc1cccc(-c2nc(NCc3cccs3)c3ccccc3n2)c1			
31.6 µM (inconclusive)	COc1ccccc1CCn1c(=O)c(-c2cccc(Cl)c2)nc2cncnc21			
12.6 µM (inconclusive)	COCCn1c(=O)c(-c2ccccc2)nc2cnc(N(C)C)nc21			AC50 (Cytochrome P450 2C19): 2 µM (inconclusive); AC50 (Cytochrome P450 3A4): 39.8 µM (inconclusive)
